From ChEMBL document CHEMBL1145923, “Synthesis and biological evaluation of 4-arylcoumarin analogues of combretastatins” (J Med Chem, 2003)

System: CCRF-CEM
Test: Inhibitory activity against CEM human leukemia cell line
Type: functional, cell-based

- IC50: > 50 µM
SMILES: COc1cc2oc(=O)cc(-c3ccc4c(c3)OCO4)c2c(OC)c1OC
